Assay results reported in publication PMC8079033, “Design, synthesis, anticancer evaluation, and molecular modelling studies of novel tolmetin derivatives as potential VEGFR-2 inhibitors and apoptosis inducers” (Journal of Enzyme Inhibition and Medicinal Chemistry, 2021).

Assays:
SF-268 = assay: NCI 60-cell line one-dose antiproliferative screen (SRB); assay type: cell-based; settings: Homo sapiens, read-out: growth inhibition % (GI%)
Procedure: (§1) Anticancer activity screening of the newly synthesised compounds was measured in vitro utilising 60 different human tumour cell lines provided by US National Cancer Institute according to previously reported standard procedure[41–43] as follows: Cells are inoculated into 96-well microtiter plates in 100 ml. After cell inoculation, the microtiter plates are incubated at 37 °C, 5% CO2, 95% air, and 100% relative humidity for 24 h prior to addition of experimental compounds. After 24 h, two plates of each cell line are fixed in situ with TCA, to represent a measurement of the cell population for each cell line at the time of compound addition (Tz). Experimental compounds are solubilised in dimethyl sulfoxide at 400-fold the desired final maximum test concentration and stored frozen prior to use. At the time of compound addition, an aliquot of frozen concentrate is thawed and diluted to twice the desired final maximum test concentration with a complete medium containing […] gentamicin. Aliquots of […] of the compounds dilutions are added to the appropriate microtiter wells already containing 100 ml of medium, resulting in the required final compound concentration. Following compound addition, the plates are incubated for an additional 48 h at 37 °C, 5% CO2, 95% air, and 100% relative humidity. For adherent cells, the assay is terminated by the addition of cold trichloroacetic acid (TCA). Cells are fixed in situ by the gentle addition of 50 ml of cold 50% (w/v) TCA (final concentration, 10% TCA) and incubated for […] at 4 °C. The supernatant is discarded, and the plates are washed five times with tap water and air-dried. Sulforhodamine B (SRB) solution (100 ml) at 0.4% (w/v) in 1% acetic acid is added to each well, and plates are incubated for 10 min at room temperature. After staining, the unbound dye is removed by washing five times with 1% acetic acid and the plates are air-dried. The bound stain is subsequently solubilised with a 10 mM trizma base, and the absorbance is read on an automated plate reader at a wavelength of 515 nm. For suspension cells, the methodology is the same except that the assay is terminated by fixing settled cells at the bottom of the wells by gently adding 50 ml of 80% TCA (final concentration, 16% TCA). Using the absorbance measurements [time zero, (Tz), control growth, (C), and test growth in the presence of compound (Ti)], the percentage growth is calculated for each compound. The One-dose data are reported as a mean graph of the percent growth of treated cells. The reported number is growth relative to the no-compound control, and relative to the time zero number of cells. This allows the detection of both growth inhibition and lethality.
(§2) Fifteen newly synthesised compounds were tested for their in vitro antiproliferative activity by the National Cancer Institute (NCI), Maryland, USA[50], under the Developmental Therapeutic Program (DTP)[41]^,[43]^,[51]^,[52]. The tested compounds were evaluated at a concentration of 10 µM on a panel of 60 tumour cell lines representing leukaemia and non-small cell lung, colon, CNS, melanoma, ovarian, renal, prostate, and breast cancers. The antiproliferative activity was presented by the NCI as percent growth of the treated cells and is presented in Table 1 as growth inhibition percentage (GI%) achieved by the tested compounds.

SNB-75 = assay: as above; assay type: cell-based; settings: Homo sapiens, read-out: growth inhibition % (GI%)
Procedure: as §1, §2

NCI-H522 = assay: as above; assay type: cell-based; settings: Homo sapiens, read-out: growth inhibition % (GI%)
Procedure: as §1, §2

MDA-MB-468 = assay: as above; assay type: cell-based; settings: Homo sapiens, read-out: growth inhibition % (GI%)
Procedure: as §1, §2

MCF7 = assay: as above; assay type: cell-based; settings: Homo sapiens, read-out: growth inhibition % (GI%)
Procedure: as §1, §2

OVCAR-8 = assay: as above; assay type: cell-based; settings: Homo sapiens, read-out: growth inhibition % (GI%)
Procedure: as §1, §2

ACHN = assay: as above; assay type: cell-based; settings: Homo sapiens, read-out: growth inhibition % (GI%)
Procedure: as §1, §2

SW-620 = assay: as above; assay type: cell-based; settings: Homo sapiens, read-out: growth inhibition % (GI%)
Procedure: as §1, §2

SK-MEL-5 = assay: as above; assay type: cell-based; settings: Homo sapiens, read-out: growth inhibition % (GI%)
Procedure: as §1, §2

UO-31 = assay: as above; assay type: cell-based; settings: Homo sapiens, read-out: growth inhibition % (GI%)
Procedure: as §1, §2

EKVX = assay: as above; assay type: cell-based; settings: Homo sapiens, read-out: growth inhibition % (GI%)
Procedure: as §1, §2

NCI-H23 = assay: as above; assay type: cell-based; settings: Homo sapiens, read-out: growth inhibition % (GI%)
Procedure: as §1, §2

UACC-62 = assay: as above; assay type: cell-based; settings: Homo sapiens, read-out: growth inhibition % (GI%)
Procedure: as §1, §2

IGROV1 = assay: as above; assay type: cell-based; settings: Homo sapiens, IGROV-1, read-out: growth inhibition % (GI%)
Procedure: as §1, §2

CAKI-1 = assay: as above; assay type: cell-based; settings: Homo sapiens, read-out: growth inhibition % (GI%)
Procedure: as §1, §2

M14 = assay: as above; assay type: cell-based; settings: Homo sapiens, read-out: growth inhibition % (GI%)
Procedure: as §1, §2

SF-539 = assay: as above; assay type: cell-based; settings: Homo sapiens, read-out: growth inhibition % (GI%)
Procedure: as §1, §2

SNB-19 = assay: as above; assay type: cell-based; settings: Homo sapiens, read-out: growth inhibition % (GI%)
Procedure: as §1, §2

SN 12 C = assay: as above; assay type: cell-based; settings: Homo sapiens, SN12C, read-out: growth inhibition % (GI%)
Procedure: as §1, §2

HCT-15 = assay: as above; assay type: cell-based; settings: Homo sapiens, read-out: growth inhibition % (GI%)
Procedure: as §1, §2

T-47D = assay: as above; assay type: cell-based; settings: Homo sapiens, T47D, read-out: growth inhibition % (GI%)
Procedure: as §1, §2

LOX IMVI = assay: as above; assay type: cell-based; settings: Homo sapiens, read-out: growth inhibition % (GI%)
Procedure: as §1, §2

HS 578 T = assay: as above; assay type: cell-based; settings: Homo sapiens, read-out: growth inhibition % (GI%)
Procedure: as §1, §2

NCI-H226 = assay: as above; assay type: cell-based; settings: Homo sapiens, read-out: growth inhibition % (GI%)
Procedure: as §1, §2

A498 = assay: as above; assay type: cell-based; settings: Homo sapiens, read-out: growth inhibition % (GI%)
Procedure: as §1, §2

U251 = assay: as above; assay type: cell-based; settings: Homo sapiens, U-251, read-out: growth inhibition % (GI%)
Procedure: as §1, §2

MOLT-4 = assay: as above; assay type: cell-based; settings: Homo sapiens, read-out: growth inhibition % (GI%)
Procedure: as §1, §2

HOP-62 = assay: as above; assay type: cell-based; settings: Homo sapiens, read-out: growth inhibition % (GI%)
Procedure: as §1, §2

PC-3 = assay: as above; assay type: cell-based; settings: Homo sapiens, read-out: growth inhibition % (GI%)
Procedure: as §1, §2

A549/ATCC = assay: as above; assay type: cell-based; settings: Homo sapiens, read-out: growth inhibition % (GI%)
Procedure: as §1, §2

BT-5 = assay: as above; assay type: cell-based; settings: Homo sapiens, read-out: growth inhibition % (GI%)
Procedure: as §1, §2

MDA-MB-231/ATCC = assay: as above; assay type: cell-based; settings: Homo sapiens, read-out: growth inhibition % (GI%)
Procedure: as §1, §2

RXF 393 = assay: as above; assay type: cell-based; settings: Homo sapiens, read-out: growth inhibition % (GI%)
Procedure: as §1, §2

RPMI-8226 = assay: as above; assay type: cell-based; settings: Homo sapiens, read-out: growth inhibition % (GI%)
Procedure: as §1, §2

K-562 = assay: NCI 60-cell line one-dose antiproliferative screen (SRB); assay type: cell-based; settings: Homo sapiens, K562, read-out: growth inhibition % (GI%)
Procedure: as §1, §2

NCI/ADR-RES = assay: as above; assay type: cell-based; settings: Homo sapiens, read-out: growth inhibition % (GI%)
Procedure: as §1, §2

OVCAR-5 = assay: as above; assay type: cell-based; settings: Homo sapiens, read-out: growth inhibition % (GI%)
Procedure: as §1, §2

SF-295 = assay: as above; assay type: cell-based; settings: Homo sapiens, read-out: growth inhibition % (GI%)
Procedure: as §1, §2

MDA-MB-435 = assay: as above; assay type: cell-based; settings: Homo sapiens, read-out: growth inhibition % (GI%)
Procedure: as §1, §2

HOP-92 = assay: as above; assay type: cell-based; settings: Homo sapiens, read-out: growth inhibition % (GI%)
Procedure: as §1, §2

Cc1ccc(C(=O)c2ccc(CC(=O)NNC(=O)Nc3c(C)cccc3Cl)n2C)cc1 [Compound 8b, N-(2-Chloro-6-methylphenyl)-2–(2-(1-methyl-5–(4-methylbenzoyl)-1H-pyrrol-2-yl)acetyl)hydrazinecarboxamide]
inhibition at 10 µM (SF-268): < 10% | inhibition at 10 µM (SNB-75): 27.9% | inhibition at 10 µM (NCI-H522): < 10% | inhibition at 10 µM (MDA-MB-468): < 10% | inhibition at 10 µM (MCF7): < 10% | inhibition at 10 µM (OVCAR-8): < 10% | inhibition at 10 µM (ACHN): < 10% | inhibition at 10 µM (SW-620): < 10% | inhibition at 10 µM (SK-MEL-5): < 10% | inhibition at 10 µM (UO-31): 26.1% | inhibition at 10 µM (EKVX): < 10% | inhibition at 10 µM (NCI-H23): < 10% | inhibition at 10 µM (UACC-62): < 10% | inhibition at 10 µM (IGROV1): 11.2% | inhibition at 10 µM (CAKI-1): 11.3% | inhibition at 10 µM (M14): < 10% | inhibition at 10 µM (SF-539): < 10% | inhibition at 10 µM (SNB-19): 16.1% | inhibition at 10 µM (SN 12 C): < 10% | inhibition at 10 µM (HCT-15): < 10% | inhibition at 10 µM (T-47D): < 10% | inhibition at 10 µM (LOX IMVI): < 10% | inhibition at 10 µM (HS 578 T): < 10% | inhibition at 10 µM (NCI-H226): < 10% | inhibition at 10 µM (A498): < 10% | inhibition at 10 µM (U251): < 10% | inhibition at 10 µM (MOLT-4): < 10% | inhibition at 10 µM (HOP-62): < 10% | inhibition at 10 µM (PC-3): < 10% | inhibition at 10 µM (A549/ATCC): < 10% | inhibition at 10 µM (BT-5): 12.7% | inhibition at 10 µM (MDA-MB-231/ATCC): < 10% | inhibition at 10 µM (RXF 393): < 10% | inhibition at 10 µM (RPMI-8226): < 10% | melting point: 240 to 242 °C

Cc1ccc(C(=O)c2ccc(CC(=O)NN=C3C(=O)Nc4ccc(OC(F)(F)F)cc43)n2C)cc1 [Compound 6c, 2–(1-Methyl-5–(4-methylbenzoyl)-1H-pyrrol-2-yl)-N′-(2-oxo-5-(trifluoromethoxy)indolin-3-ylidene)acetohydrazide]
inhibition at 10 µM (K-562): < 10% | inhibition at 10 µM (SF-268): < 10% | inhibition at 10 µM (SNB-75): 37.1% | inhibition at 10 µM (NCI-H522): 11.9% | inhibition at 10 µM (MDA-MB-468): < 10% | inhibition at 10 µM (NCI/ADR-RES): < 10% | inhibition at 10 µM (OVCAR-5): < 10% | inhibition at 10 µM (MCF7): < 10% | inhibition at 10 µM (OVCAR-8): < 10% | inhibition at 10 µM (ACHN): < 10% | inhibition at 10 µM (SW-620): < 10% | inhibition at 10 µM (SK-MEL-5): < 10% | inhibition at 10 µM (UO-31): 24.3% | inhibition at 10 µM (SF-295): < 10% | inhibition at 10 µM (UACC-62): < 10% | inhibition at 10 µM (IGROV1): < 10% | inhibition at 10 µM (CAKI-1): 12.6% | inhibition at 10 µM (MDA-MB-435): < 10% | inhibition at 10 µM (SF-539): < 10% | inhibition at 10 µM (SNB-19): < 10% | inhibition at 10 µM (SN 12 C): < 10% | inhibition at 10 µM (T-47D): < 10% | inhibition at 10 µM (LOX IMVI): < 10% | inhibition at 10 µM (NCI-H226): < 10% | inhibition at 10 µM (U251): < 10% | inhibition at 10 µM (HOP-62): 11.1% | inhibition at 10 µM (PC-3): < 10% | inhibition at 10 µM (MDA-MB-231/ATCC): < 10% | inhibition at 10 µM (HOP-92): < 10% | melting point: 157 to 159 °C
